Data as given in patent US20030165446A1, “Divalent manganese salts for reducing odour resulting from bacterial decomposition of human perspiration” (priority 2003, published 2003).

What was measured:
[1] = background statement; cited from earlier work
Corynebacterium xerosis = type: cell-based; conditions: dilutions in agar medium
Protocol: (§1) The microbiostatic activity of MnCl2 was determined in comparison with triclosan (deodorant active principle of the prior art) by the method of dilutions in agar medium.
(§2) One hundred μl of the ethanolic solution were added to 0.9 ml of agar culture heated beyond the melting point to 45° C. (medium chosen as a function of the nutrient requirements of the strain studied). After stirring with a Vortex device, successive dilutions in geometric progression in a ratio of 2 of the solution obtained were carried out using agar culture medium heated beyond the melting point to 45° C. One ml of each dilution was introduced into the wells of a microplate (Flacon [sic], 24 wells). Four μl of microbial suspension were deposited at the surface of the agar medium.
(§3) Two control wells were also prepared: 100 μl H2O+0.9 ml of culture medium (growth control), 100 μl ethanol+0.9 ml of culture medium.
(§4) After incubating under conditions (temperature, atmosphere and duration) dependent on the strain studied, the Minimum Inhibitory Concentration (MIC) is given by the lowest concentration of product which inhibits microbial growth.
(§5) Results: expressed in % w/v

[2] = test system: Staphylococcus epidermidis; type: cell-based; conditions: dilutions in agar medium
Protocol: as §1, §2, §3, §4, §5

[3] = test system: natural sweat (human axillary sweat); conditions: 1 mg of active material per ml of sweat, i.e. 0.1%, incubated 18 h then 24 h at 37° C., with respect to control sweat without deodorant agent; for Mean % of reduction in the odor annoyance (mean over 18 h and 24 h): hedonic grade
Protocol: A test of inhibition of the evolution of odors was carried out on natural sweat.
The principle of this test consists in adding the deodorant agent to fresh sweat and then in carrying out an olfactory evaluation by a jury of experts after incubating for 18 hours and then 24 hours at 37° C.
Thus, the axillary sweat was taken from several human models in a sauna and was combined to produce a sample of sweat. In order to obtain the characteristic nauseating odor of sweat, this sample of sweat was incubated […]. […] The active substance was then introduced into each of the flasks to be tested.
Per 1 mg of active material per ml of sweat, i.e. 0.1%: […]

Compound | solubility in water [1] | Minimum Inhibitory Concentration (MIC) (Corynebacterium xerosis) | Minimum Inhibitory Concentration (MIC) [2] | Mean % of reduction in the strength of the odor (mean over 18 h and 24 h) [3] | Mean % of reduction in the odor annoyance (mean over 18 h and 24 h) [3]
Oc1cc(Cl)ccc1Oc1ccc(Cl)cc1Cl [Triclosan, 2,4,4′-trichloro-2′-hydroxydiphenyl ether] | insoluble | 4 × 10^−6 % w/v | 3 × 10^−8 % w/v | −39% | −27%
manganese chloride [MnCl2] | – | 0.23 % w/v | 0.23 % w/v | −43% | −31%
